Assay results published in US20230201209A1, “PHARMACEUTICAL COMPOSITION FOR PREVENTING OR TREATING CANCER CONTAINING ANTIVIRAL AGENT AND ANTIDEPRESSANT AS ACTIVE INGREDIENTS” (FRONTBIO INC., priority 2020, published 2023).

Test system: various cancer cells
Experiment: MTT analysis, summary statements on various cancer cells
Format: cell-based
Details: not given
Experimental: Specifically, ASPC-1 cell line, which is a pancreatic cancer cell line, and HCT116 cell line, which is a colon cancer cell line, was incubated in a 100 mm culture dish using DMEM-10% FBS under 5% CO2 at 37° C., inoculated into each well of a 96-well plate at 20% confluence, and incubated for 24 hours. The incubated cell lines were treated with efavirenz at a concentration of 2 μM and fluoxetine at a concentration of 2 μM alone or in combination and cultured in a CO2 incubator for 24 hours. The culture medium was removed from each well, 100 pl of a fresh culture medium was added, and 10 μl of a 12 mM MTT stock solution (5 mg MTT/PBS) was added, and incubation was performed at 37° C. for 2 hours. Thereafter, 100 pl of SDS-HCl solution (1 g SDS/10 ml 0.01 M HCl), which was a reaction terminating solution, was added, incubation was performed at 37° C. for 4 hours, and OD was measured at 570 nm using a microplate leader. Percentage (%) growth inhibition was calculated by comparing the OD thus measured to the OD of the cells not treated with drugs.

For `CC(C)CN(C[C@@H](O)[C@H](Cc1ccccc1)NC(=O)O[C@H]1CO[C@H]2OCC[C@H]21)S(=O)(=O)c1ccc(N)cc1` [darunavir], which “growth inhibitory effect in cancer cells” value is on record?
The value was “a growth inhibitory effect is exerted”.

`CNCC[C@H](Oc1cccc2ccccc12)c1cccs1` [duloxetine] was tested. Which “growth inhibitory effect in cancer cells” value did it give?
The value was “a growth inhibitory effect is exerted”.

Same assay, conditions: treated singly or in a complex, mixed or combined manner; MTT analysis

For `CN(C)CCC=C1c2ccccc2CCc2ccccc21` [amitriptyline], which “growth inhibitory effect in cancer cells” value is on record?
Its value is “a growth inhibitory effect is exerted”.

For `Clc1ccc2c(c1)C(N1CCNCC1)=Nc1ccccc1O2` [amoxapine], which “growth inhibitory effect in cancer cells” value is on record?
Its value is “a growth inhibitory effect is exerted”.

With `COC(=O)N[C@H](C(=O)N[C@@H](Cc1ccccc1)[C@@H](O)CN(Cc1ccc(-c2ccccn2)cc1)NC(=O)[C@@H](NC(=O)OC)C(C)(C)C)C(C)(C)C` [atazanavir] as the molecule, how does the “growth inhibitory effect in cancer cells” value read?
The value was “a growth inhibitory effect is exerted”.

With `CN(C)CCCN1c2ccccc2CCc2ccc(Cl)cc21` [clomipramine] as the molecule, how does the “growth inhibitory effect in cancer cells” value read?
Its value is “a growth inhibitory effect is exerted”.

How did the “growth inhibitory effect in cancer cells” value turn out when `CNCCCN1c2ccccc2CCc2ccccc21` [desipramine] was run?
Its value is “a growth inhibitory effect is exerted”.

`O=C1Nc2ccc(Cl)cc2[C@@](C#CC2CC2)(C(F)(F)F)O1` [efavirenz] was tested. Which “growth inhibitory effect in cancer cells” value did it give?
The value was “a growth inhibitory effect is exerted”.

`Cc1cc(C#N)cc(C)c1Oc1nc(Nc2ccc(C#N)cc2)nc(N)c1Br` [etravirine] was tested. Which “growth inhibitory effect in cancer cells” value did it give?
Its value is “a growth inhibitory effect is exerted”.

Which “growth inhibitory effect in cancer cells” value does the source give for `CNCCC(Oc1ccc(C(F)(F)F)cc1)c1ccccc1` (centres unmarked) [fluoxetine] here?
Its value is “a growth inhibitory effect is exerted”.

With `COCCCC/C(=N\OCCN)c1ccc(C(F)(F)F)cc1` [fluvoxamine] as the molecule, how does the “growth inhibitory effect in cancer cells” value read?
Its value is “a growth inhibitory effect is exerted”.

With `Cc1cccc(C)c1OCC(=O)N[C@@H](Cc1ccccc1)[C@@H](O)C[C@H](Cc1ccccc1)NC(=O)[C@H](C(C)C)N1CCCNC1=O` [lopinavir] as the molecule, how does the “growth inhibitory effect in cancer cells” value read?
Its value is “a growth inhibitory effect is exerted”.

Which “growth inhibitory effect in cancer cells” value does the source give for `CNCCCC12CCC(c3ccccc31)c1ccccc12` [maprotyline, maprotiline] here?
The value was “a growth inhibitory effect is exerted”.

With `CN(C)CCC=C1c2ccccc2C(C)(C)c2ccccc21` [melitracene, melitracen] as the molecule, how does the “growth inhibitory effect in cancer cells” value read?
Its value is “a growth inhibitory effect is exerted”.

Which “growth inhibitory effect in cancer cells” value does the source give for `CN(C)C(=N)NC(=N)N` [metformin] here?
The value was “a growth inhibitory effect is exerted”.

For `CNCCC=C1c2ccccc2CCc2ccccc21` [nortriptyline], which “growth inhibitory effect in cancer cells” value is on record?
The value was “a growth inhibitory effect is exerted”.

Which “growth inhibitory effect in cancer cells” value does the source give for `Fc1ccc([C@@H]2CCNC[C@H]2COc2ccc3c(c2)OCO3)cc1` [paroxetine] here?
Its value is “a growth inhibitory effect is exerted”.

With `CNCCCC1c2ccccc2C=Cc2ccccc21` [protriptyline] as the molecule, how does the “growth inhibitory effect in cancer cells” value read?
Its value is “a growth inhibitory effect is exerted”.

How did the “growth inhibitory effect in cancer cells” value turn out when `CC(C)c1nc(CN(C)C(=O)N[C@H](C(=O)N[C@@H](Cc2ccccc2)C[C@H](O)[C@H](Cc2ccccc2)NC(=O)OCc2cncs2)C(C)C)cs1` [ritonavir] was run?
Its value is “a growth inhibitory effect is exerted”.

Which “growth inhibitory effect in cancer cells” value does the source give for `CC(CN(C)C)CN1c2ccccc2CCc2ccccc21` (centres unmarked) [trimipramine] here?
The value was “a growth inhibitory effect is exerted”.
